From paper PMC6851342 (The Journal of Biological Chemistry, 2019)

Target: T1, WT EhV1 (A3B3DF complex, V1-ATPase from Enterococcus hirae) (Enterococcus hirae, UniProt Q08636+Q08637)
T1 construct: gene ntpA
Assay: single-molecule rotation, ADP-dependent backward steps and pause durations
Format: biochemical
Conditions: ATPγS-driven rotation; 10-100 μM ATPγS, 1-300 μM ADP, no ADP-quenching system, pH 6.5

Nc1ncnc2c1ncn2[C@@H]1O[C@H](COP(=O)(O)OP(=O)(O)O)[C@@H](O)[C@H]1O [ADP]
single-molecule rotation, ADP-dependent backward steps and pause durations: the addition of ADP causes frequent backward steps during the rotation
